Results: ChEMBL document CHEMBL3600348, “Synthesis of novel derivatives of oxindole, their urease inhibition and molecular docking studies” (Bioorg Med Chem Lett, 2015)
pIC50: −log10 of the molar value.

Biological target: Urease (Canavalia ensiformis, UniProt P07374)
Experiment: Inhibition of jack bean urease using urea as substrate assessed as ammonia production after 15 mins by Weatherburn assay

Sequence of Urease (P07374 whole entry): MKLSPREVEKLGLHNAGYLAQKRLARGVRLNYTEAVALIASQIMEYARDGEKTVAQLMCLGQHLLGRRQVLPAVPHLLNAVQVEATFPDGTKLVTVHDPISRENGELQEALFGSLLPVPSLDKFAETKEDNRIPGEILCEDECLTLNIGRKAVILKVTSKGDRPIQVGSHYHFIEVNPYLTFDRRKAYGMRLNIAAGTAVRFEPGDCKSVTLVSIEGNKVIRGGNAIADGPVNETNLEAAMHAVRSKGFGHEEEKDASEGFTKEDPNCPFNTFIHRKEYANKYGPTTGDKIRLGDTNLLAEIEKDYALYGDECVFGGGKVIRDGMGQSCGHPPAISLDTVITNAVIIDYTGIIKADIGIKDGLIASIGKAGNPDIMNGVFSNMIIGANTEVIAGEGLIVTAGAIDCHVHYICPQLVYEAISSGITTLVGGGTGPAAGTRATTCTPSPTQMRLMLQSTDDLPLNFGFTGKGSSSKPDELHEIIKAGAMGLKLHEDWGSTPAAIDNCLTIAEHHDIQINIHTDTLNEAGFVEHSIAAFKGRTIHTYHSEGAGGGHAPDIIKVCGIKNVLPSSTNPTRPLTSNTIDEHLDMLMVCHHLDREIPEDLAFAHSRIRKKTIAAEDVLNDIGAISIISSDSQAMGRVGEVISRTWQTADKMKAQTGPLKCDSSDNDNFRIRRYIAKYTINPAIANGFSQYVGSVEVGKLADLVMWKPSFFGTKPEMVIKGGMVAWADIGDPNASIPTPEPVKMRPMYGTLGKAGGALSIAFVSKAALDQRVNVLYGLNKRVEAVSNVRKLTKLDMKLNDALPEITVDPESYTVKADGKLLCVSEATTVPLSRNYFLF

Structure (SMILES) | pIC50
O=C1Nc2ccc(Cl)cc2/C1=C\c1ccc(C(=O)N/N=C/c2ccc(Cl)cc2)cc1 | 3.96
O=C1Nc2ccc(Cl)cc2/C1=C\c1ccc(C(=O)N/N=C/c2cccc([N+](=O)[O-])c2)cc1 | 3.83
O=C1Nc2ccc(Cl)cc2/C1=C\c1ccc(C(=O)N/N=C/c2cccc(O)c2)cc1 | 3.99
O=C1Nc2ccc(Cl)cc2/C1=C\c1ccc(C(=O)N/N=C/c2ccc(O)cc2)cc1 | 4.07
O=C1Nc2ccc(Cl)cc2/C1=C\c1ccc(C(=O)N/N=C/c2cc(O)c(O)cc2O)cc1 | 3.90
O=C1Nc2ccc(Cl)cc2/C1=C\c1ccc(C(=O)N/N=C/c2cc(O)ccc2O)cc1 | 4.27
O=C1Nc2ccc(Cl)cc2/C1=C\c1ccc(C(=O)N/N=C/c2ccc([N+](=O)[O-])cc2)cc1 | 4.03
O=C1Nc2ccc(Cl)cc2/C1=C\c1ccc(C(=O)N/N=C/c2cc(O)cc(O)c2)cc1 | 4.72
O=C1Nc2ccc(Cl)cc2/C1=C\c1ccc(C(=O)N/N=C/c2ccccc2O)cc1 | 3.92
COc1ccc(/C=N/NC(=O)c2ccc(/C=C3/C(=O)Nc4ccc(Cl)cc43)cc2)cc1 | 3.84
COc1ccc(/C=N/NC(=O)c2ccc(/C=C3/C(=O)Nc4ccc(Cl)cc43)cc2)c(O)c1 | 3.84
C/C(=N\NC(=O)c1ccc(/C=C2/C(=O)Nc3ccc(Cl)cc32)cc1)c1c(O)cc(O)cc1O | 4.45
O=C1Nc2ccc(Cl)cc2/C1=C\c1ccc(C(=O)N/N=C/c2cccc(O)c2O)cc1 | 3.96
O=C1Nc2ccc(Cl)cc2/C1=C\c1ccc(C(=O)N/N=C/c2ccc(O)c(O)c2)cc1 | 4.15
COc1ccc(O)c(/C=N/NC(=O)c2ccc(/C=C3/C(=O)Nc4ccc(Cl)cc43)cc2)c1 | 4.09
O=C1Nc2ccc(Cl)cc2/C1=C\c1ccc(C(=O)N/N=C/c2c(O)cc(O)cc2O)cc1 | 4.89
O=C1Nc2ccc(Cl)cc2/C1=C\c1ccc(C(=O)N/N=C/c2ccc(O)cc2O)cc1 | 4.37
C/C(=N\NC(=O)c1ccc(/C=C2/C(=O)Nc3ccc(Cl)cc32)cc1)c1ccccc1O | 4.14
CC(=O)NO [ACETOHYDROXAMIC ACID] | 4.38
